Results as given in patent US20230120597A1, “CO-AGONISTS AT GLP-1 AND GIP RECEPTORS SUITABLE FOR ORAL DELIVERY” (Novo Nordisk A/S, priority 2020, published 2023).
Read-outs that look alike come from different tables or passages of the source. Starred links: 1 amine or outer side, 2 acyl side, 3 side chain; linkers in the order of their positions; H or OH if unused. Non-standard residues stand in square brackets, D forms with d. Residues, ends and D or L forms follow the SMILES beside them. Groups on a side chain read outwards from the residue. *: point of attachment. C18 diacid = O=C(O)CCCCCCCCCCCCCCCCC(=O)*; γGlu = O=C(O)[C@H](CCC(=O)[*:2])N[*:1]; εLys = N[C@@H](CCCCN[*:1])C(=O)[*:2]; Aib = CC(C)(N)C(=O)O

What was measured:
[1] = target: T1, human GIP receptor (Homo sapiens, UniProt P48546); assay: In vitro functional potency, CRE luciferase reporter gene assay, whole BHK cells expressing hGIPR; type: cell-based; conditions: BHK CRE luc2P hGIPR cells
T1 construct: expressed in transfected cells; host or cells: BHK (parent line BHKTS13), clone BHK CRE luc2P hGIPR
T1 sequence (P48546 22-466): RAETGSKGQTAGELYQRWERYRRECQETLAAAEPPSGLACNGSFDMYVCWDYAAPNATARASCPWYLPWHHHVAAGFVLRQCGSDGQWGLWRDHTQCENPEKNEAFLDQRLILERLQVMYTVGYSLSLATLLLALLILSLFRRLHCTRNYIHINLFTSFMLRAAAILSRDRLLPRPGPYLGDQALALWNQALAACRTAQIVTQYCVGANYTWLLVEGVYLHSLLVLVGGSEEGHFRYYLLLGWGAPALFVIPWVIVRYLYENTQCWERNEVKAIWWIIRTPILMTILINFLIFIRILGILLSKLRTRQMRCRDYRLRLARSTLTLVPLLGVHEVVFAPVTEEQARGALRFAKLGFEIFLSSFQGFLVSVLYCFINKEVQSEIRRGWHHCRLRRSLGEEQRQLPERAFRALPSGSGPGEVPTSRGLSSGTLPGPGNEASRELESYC
Method: (§1) The in vitro functional potency is the measure of target receptor activation in a whole cell assay.
(§2) In vitro functional potency was determined by measuring the response of the target receptor in a reporter gene assay in individual cell lines. […] When the respective receptor is activated, it results in the production of cAMP, which in turn results in expression of the luciferase protein. When assay incubation is completed, luciferase substrate (luciferin) is added resulting in the enzymatic conversion of luciferin to oxyluciferin and producing bioluminescence. The luminescence is measured as the readout for the assay.
(§3) The cells lines used in these assays were BHK cells with BHKTS13 as a parent cell line. The cell lines were derived from a clone containing the CRE luciferase element and were established by further transfection with the respective human receptor to obtain the relevant cell line: BHK CRE luc2P hGLP-1R or BHK CRE luc2P hGIPR. The cells were cultured at 37° C. with 5% CO2 in Cell Culture Medium. They were aliquoted and stored in liquid nitrogen. The cells were kept in continuous culture and were seeded out the day before each assay.
(§4) GLP-1R Cell Culture Medium consisted of DMEM medium with 10% FBS, 500 μg/mL G418, and 300 μg/mL hygromycin. GIPR Cell Culture Medium consisted of DMEM medium with 10% FBS, 400 μg/mL G418, and 300 μg/mL hygromycin. Assay Buffer consisted of DMEM w/o phenol red, 10 mM Hepes, 1× Glutamax. 1% ovalbumin, and 0.1% Pluronic F-68 with the addition of HSA at twice the final assay concentration.
(§5) Procedure • 1) Cells were plated at 5000 cells/well and incubated overnight in the assay plate. • 2) Cells were washed once in DPBS. • 3) Stocks of the test compounds and reference compounds in concentrations ranging from […] were diluted 1:150 in Assay Buffer. Compounds were then diluted 1:10 in column 1 of a 96 deep well dilution plate and then carried across the row creating a 3.5 fold, 12 point dilution curve. • 4) Assay Buffer (50 μl aliquot) with or without HSA was added to each well in the assay plate. • 5) A 50 μl aliquot of compound or blank was transferred from the dilution plate to the assay plate containing the Assay Buffer with or without HSA. • 6) The assay plate was incubated for 3 h in a 5% CO2 incubator at 37° C. • 7) The cells were washed once with DPBS. • 8) A 100 μl aliquot of DPBS was added to each well of the assay plate. • 9) A 100 μl aliquot of steadylite plus reagent (light sensitive) was added to each well of the assay plate. • 10) Each assay plate was covered with aluminum foil to protect it from light and shaken at 250 RPM for 30 min at room temperature. • 11) Each assay plate was read in a microtiter plate reader.
(§6) The data from the microtiter plate reader was first regressed in an Excel in order to calculate the x-axis, log scale concentrations based on the individual test compound's stock concentration and the dilutions of the assay. […] The software performs a non-linear regression (log(agonist) vs response). A minimum of two replicates was measured for each sample. The reported values are averages of the replicates.

[2] = target: T2, human GLP-1 receptor (Homo sapiens, UniProt P43220); assay: In vitro functional potency, CRE luciferase reporter gene assay, whole BHK cells expressing hGLP-1R; type: cell-based; conditions: BHK CRE luc2P hGLP-1R cells
T2 construct: expressed in transfected cells; host or cells: BHK (parent line BHKTS13), clone BHK CRE luc2P hGLP-1R
T2 sequence (P43220 24-463): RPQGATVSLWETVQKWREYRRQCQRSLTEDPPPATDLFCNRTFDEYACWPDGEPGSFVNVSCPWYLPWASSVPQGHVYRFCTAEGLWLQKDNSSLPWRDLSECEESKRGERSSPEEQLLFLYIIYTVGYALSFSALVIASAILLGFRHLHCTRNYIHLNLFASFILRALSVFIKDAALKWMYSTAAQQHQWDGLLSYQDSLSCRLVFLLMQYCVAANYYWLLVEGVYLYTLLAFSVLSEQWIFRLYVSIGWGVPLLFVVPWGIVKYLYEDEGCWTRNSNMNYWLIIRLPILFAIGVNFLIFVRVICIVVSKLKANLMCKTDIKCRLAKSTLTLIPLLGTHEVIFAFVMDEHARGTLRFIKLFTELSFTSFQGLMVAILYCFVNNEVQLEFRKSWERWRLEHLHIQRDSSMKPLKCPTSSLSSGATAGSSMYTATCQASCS
Method: as §1, §2, §3, §4, §5, §6

[3] = Pharmacokinetic study in dogs, oral dosing of tablet compositions with SNAC; type: in vivo, Beagle dogs; conditions: dog, in vivo, po
Method: The purpose of this example is to determine the half-life and plasma exposure in vivo of the compounds of the present invention after p.o. administration to beagle dogs, i.e. the terminal half-life and concentration of test substance that reaches circulation with time. This is done in a pharmacokinetic (PK) study, where these parameters of the compound in question are determined. By terminal half-life is generally meant the period of time it takes to halve a certain plasma concentration, measured after the initial distribution phase.
The amount of SNAC in the tablet composition was 100-300 mg, the amount of magnesium stearate in the tablet composition was 7.7 mg, and the target amount of each test substance in the tablet composition was 3-4 mg.
Male beagle dogs, 1-7 years of age and weighing 9-17 kg during the study period, were included in the study. The dogs were dosed in a fasting state. The dogs were group housed in pens (12 hours light: 12 hours dark), and fed individually and restrictedly once daily with Royal Canin Medium Adult dog food (Royal Canin Products, China Branch, or Brogaarden A/S, Denmark). The dogs were used for repeated PK studies with a suitable wash-out period between successive dosing. An appropriate acclimatization period was given prior to initiation of the first PK study. All handling, dosing, and blood sampling of the animals were performed by trained and skilled staff. Before the studies, the dogs were fasted overnight and from 0 to 4 hours after dosing. The dogs were restricted to water 1 hour before dosing until 4 hours after dosing, but otherwise had ad libitum access to water during the whole period.
The compositions were administered by a single oral dosing to the dogs in groups of 6-8 dogs. […] The mouth was then closed, and 10 mL of tap water was given by syringe or gavage to facilitate swallowing of the tablet.
One blood sample was drawn before dosing, and additional samples were drawn at predefined time points after dosing for up to 240 hours, such as up to 10 hours, to adequately cover the full plasma concentration-time absorption profile of the test substance. For each blood sample time point, approximately 0.8 mL of whole blood was collected in a 1.5 mL EDTA-coated tube, which was gently turned to mix the sample with EDTA. Blood samples were collected in EDTA buffer (8 mM) and then centrifuged at 4° C. 2000 g for 10 minutes. Plasma was pipetted into Micronic tubes on dry ice, and kept at −20° C. or lower until analysis. Blood samples were taken as appropriate, for example from a venflon in the cephalic vein in the front leg for the first 2 hours and then with syringe from the jugular vein for the rest of the time points. The first few drops were allowed to drain from the venflon to avoid heparin saline from the venflon in the sample.
All blood samples were collected into test tubes containing EDTA for stabilisation and kept on ice until centrifugation. Plasma was separated from whole blood by centrifugation and the plasma was stored at −20° C. or lower until analysis.
The plasma was analysed for test substance using LC-MS (Liquid Chromatography-Mass Spectrometry) as known to the person skilled in the art. […] RP-HPLC separation was achieved using a linear gradient of 1:1 acetonitrile/methanol in 1% aqueous formic acid using either: a Phenomenex Onyx Monolithic C18 column (50×2.0 mm) and a flow rate of 0.8 mL/min at 30° C.; or an Agilent Poroshell 120 SB-C18 column (50×2.1 mm, 2.7 μm) at a flow rate of 0.4 mL/min at 60° C. The mass spectrometer was operated in either positive ionization SIM mode or positive ionization PRM mode.
For each individual animal, a plasma concentration-time profile was analysed by a non-compartmental model in Pharsight Phoenix WinNonLin ver.

## CC(C)C[C@H](NC(=O)[C@H](CC(C)C)NC(=O)[C@H](Cc1c[nH]c2ccccc12)NC(=O)[C@H](CC(N)=O)NC(=O)[C@@H](NC(=O)[C@H](Cc1ccccc1)NC(=O)[C@H](C)NC(=O)[C@H](CCC(N)=O)NC(=O)[C@H](C)NC(=O)[C@H](C)NC(=O)[C@H](CCC(N)=O)NC(=O)[C@H](CCCCNC(=O)[C@@H](N)CCCCNC(=O)[C@@H](N)CCCCNC(=O)CC[C@H](NC(=O)CCCCCCCCCCCCCCCCC(=O)O)C(=O)O)NC(=O)[C@H](CCC(=O)O)NC(=O)[C@H](CC(C)C)NC(=O)[C@H](Cc1ccc(O)cc1)NC(=O)[C@H](Cc1ccc(O)cc1)NC(=O)[C@H](CO)NC(=O)[C@H](Cc1ccc(O)cc1)NC(=O)[C@H](CC(=O)O)NC(=O)[C@H](CO)NC(=O)[C@@H](NC(=O)[C@H](Cc1ccccc1)NC(=O)[C@@H](NC(=O)CNC(=O)[C@H](CCC(=O)O)NC(=O)C(C)(C)NC(=O)[C@@H](N)Cc1ccc(O)cc1)[C@@H](C)O)[C@@H](C)O)C(C)C)C(=O)N[C@@H](C)C(=O)NCC(=O)NCC(=O)N1CCC[C@H]1C(=O)N[C@@H](CO)C(=O)N[C@@H](CO)C(=O)NCC(=O)N[C@@H](C)C(=O)N1CCC[C@H]1C(=O)N1CCC[C@H]1C(=O)N1CCC[C@H]1C(=O)N[C@@H](CO)C(N)=O [Compound No. 4] (H-Y[Aib]EGTFTSDYSYYLEK([εLys-εLys-γGlu-C18 diacid])QAAQAFVNWLLAGGPSSGAPPPS-NH2; N-terminus assumed)
[1]; 0% HSA, read-out: hGIPR, CRE Luc 0% HSA EC50
  EC50: 0.0085 nM
[1]; hGIPR, CRE Luc 1% HSA EC50, 1% HSA
  EC50: 0.294 nM
[2]; 0% HSA, read-out: hGLP-1R, CRE Luc 0% HSA EC50
  EC50: 0.0066 nM
[2]; hGLP-1R, CRE Luc 1% HSA EC50, 1% HSA
  EC50: 0.484 nM

## CC[C@H](C)[C@H](NC(=O)[C@H](Cc1ccccc1)NC(=O)[C@H](CCC(=O)O)NC(=O)[C@H](CCCNC(=N)N)NC(=O)[C@H](C)NC(=O)[C@H](C)NC(=O)[C@H](CCC(N)=O)NC(=O)[C@H](CCC(=O)O)NC(=O)[C@H](CCC(=O)O)NC(=O)[C@H](CC(C)C)NC(=O)[C@H](CC(C)C)NC(=O)[C@H](CCCCNC(=O)[C@@H](N)CCCCNC(=O)[C@@H](N)CCCCNC(=O)CC[C@H](NC(=O)CCCCCCCCCCCCCCCCC(=O)O)C(=O)O)NC(=O)[C@H](CO)NC(=O)[C@H](Cc1ccc(O)cc1)NC(=O)[C@H](CC(=O)O)NC(=O)[C@H](CO)NC(=O)[C@@H](NC(=O)[C@H](Cc1ccccc1)NC(=O)[C@@H](NC(=O)CNC(=O)[C@H](CCC(=O)O)NC(=O)C(C)(C)NC(=O)[C@@H](N)Cc1ccc(O)cc1)[C@@H](C)O)[C@@H](C)O)C(=O)N[C@@H](CCC(=O)O)C(=O)N[C@@H](Cc1c[nH]c2ccccc12)C(=O)N[C@@H](CC(C)C)C(=O)N[C@@H](CC(C)C)C(=O)N[C@@H](C)C(=O)NCC(=O)NCC(=O)N1CCC[C@H]1C(=O)N[C@@H](CO)C(=O)N[C@@H](CO)C(=O)NCC(=O)N[C@@H](C)C(=O)N1CCC[C@H]1C(=O)N1CCC[C@H]1C(=O)N1CCC[C@H]1C(=O)N[C@@H](CO)C(=O)O [Compound No. 40]
[3]
  AUC/Dose: 27.0 kg·h/L

## CC[C@H](C)[C@H](NC(=O)[C@H](Cc1ccccc1)NC(=O)[C@H](CCC(=O)O)NC(=O)[C@H](CCCNC(=N)N)NC(=O)[C@H](C)NC(=O)[C@H](C)NC(=O)[C@H](CCC(N)=O)NC(=O)[C@H](CCC(=O)O)NC(=O)[C@H](CCC(=O)O)NC(=O)[C@H](CC(C)C)NC(=O)[C@H](CC(C)C)NC(=O)[C@@H](NC(=O)[C@H](CO)NC(=O)[C@H](Cc1ccc(O)cc1)NC(=O)[C@H](CC(=O)O)NC(=O)[C@H](CO)NC(=O)[C@@H](NC(=O)[C@H](Cc1ccccc1)NC(=O)[C@@H](NC(=O)CNC(=O)[C@H](CCC(=O)O)NC(=O)C(C)(C)NC(=O)[C@@H](N)Cc1ccc(O)cc1)[C@@H](C)O)[C@@H](C)O)[C@@H](C)CC)C(=O)N[C@@H](CCC(=O)O)C(=O)N[C@@H](Cc1c[nH]c2ccccc12)C(=O)N[C@@H](CC(C)C)C(=O)N[C@@H](CC(C)C)C(=O)N[C@@H](C)C(=O)NCC(=O)NCC(=O)N1CCC[C@H]1C(=O)N[C@@H](CO)C(=O)N[C@@H](CCCCNC(=O)[C@@H](N)CCCCNC(=O)[C@@H](N)CCCCNC(=O)CC[C@H](NC(=O)CCCCCCCCCCCCCCCCC(=O)O)C(=O)O)C(=O)NCC(=O)N[C@@H](C)C(=O)N1CCC[C@H]1C(=O)N1CCC[C@H]1C(=O)N1CCC[C@H]1C(=O)N[C@@H](CO)C(=O)O [Compound No. 43] (H-Y[Aib]EGTFTSDYSILLEEQAAREFIEWLLAGGPSK([εLys-εLys-γGlu-C18 diacid])GAPPPS-OH)
[3]
  AUC/Dose: 21.4 kg·h/L
  Cmax/Dose: 0.22 kg/L
